Data reported in article PMC10946806, “Development of Bifunctional, Raman Active Diyne‐Girder Stapled α‐Helical Peptides” (Chemistry (Weinheim an Der Bergstrasse, Germany), 2023).
Positions of bridges follow the written chain, without caps; N, C: chain ends. Non-standard residues stand in square brackets, D forms with d. Residues, ends and D or L forms follow the SMILES beside them. *: point of attachment. FITC = O=C1OC2(c3ccc(O)cc3Oc3cc(O)ccc32)c2ccc(NC(=S)*)cc21; R8 = C=CCCCCCC[C@@](C)(N)C(=O)O; S5 = C=CCCC[C@](C)(N)C(=O)O; Nle = CCCC[C@H](N)C(=O)O; Ahx = NCCCCCC(=O)O

Assays:
[1] = Circular dichroism (CD) spectroscopy, % helicity; format: physicochemical; conditions: for percentage helicity at 222 nm from mean residue ellipticity: peptide 50 μM in PBS pH 7.4, room temperature, MRE at 222 nm converted by Equation S2; for percentage helicity (in words): peptide 50 μM in PBS pH 7.4, 222 nm
Procedure: Circular dichroism (CD): CD spectra were obtained using a JASCO J-810 CD spectrometer. […] Percentage helicities can be calculated for α-helical peptides. […] […] Equation S1. MRE calculation. […] To 100 μL of peptide solution was added 100 11

[2] = on-resin Glaser oxidative coupling of two terminal alkynes (i,i+7 side chains) to 1,3-diyne; CuCl 5 eq, 4,4'-bis(hydroxymethyl)-2,2'-bipyridine 7.5 eq, DIPEA 20 eq, microwave; conditions: the molecule shown is the open-chain precursor, DMF, 10.0 mM, 60.0 °C, 3.0 h

## FTU-Ahx-AKR7YAR(Nle)GRR7LKEIAK-NH2 (sidechain bridge or staple) [compound 30, diyne-girder stapled T-STAR peptide, C14 bridge, RR]
[1]
  percentage helicity at 222 nm from mean residue ellipticity: 40%

## CCCC[C@@H]1NC(=O)[C@H](CCCNC(=N)N)NC(=O)[C@H](C)NC(=O)[C@H](Cc2ccc(O)cc2)NC(=O)[C@](C)(NC(=O)[C@H](CCCCN)NC(=O)[C@H](C)NC(=O)CCCCCNC(=S)Nc2ccc3c(c2)C(=O)OC32c3ccc(O)cc3Oc3cc(O)ccc32)CCCCCC/C=C/CCC[C@@](C)(C(=O)N[C@@H](CC(C)C)C(=O)N[C@@H](CCCCN)C(=O)N[C@@H](CCC(=O)O)C(=O)N[C@H](C(=O)N[C@@H](C)C(=O)N[C@@H](CCCCN)C(N)=O)[C@@H](C)CC)NC(=O)[C@H](CCCNC(=N)N)NC(=O)CNC1=O ({FITC-Ahx}-AK[R8]YAR[Nle]GR[S5]LKEIAK-NH2; staple (E) 3-10)
other
  % peptide remaining after 4 h with chymotrypsin: > 92%

## FTU-Ahx-AKR8YAR(Nle)GRS8LKEIAK-NH2 (sidechain bridge or staple) [compound 35, diyne-girder stapled T-STAR peptide, C16 bridge, RS]
[1]
  percentage helicity (in words): high

## CCCC[C@@H]1NC(=O)[C@H](CCCNC(=N)N)NC(=O)[C@H](C)NC(=O)[C@H](Cc2ccc(O)cc2)NC(=O)[C@@H](NC(=O)[C@H](CCCCN)NC(=O)[C@H](C)NC(=O)CCCCCNC(=S)Nc2ccc3c(c2)C(=O)OC32c3ccc(O)cc3Oc3cc(O)ccc32)CCCCCC#CC#CCCCCC[C@@H](C(=O)N[C@@H](CC(C)C)C(=O)N[C@@H](CCCCN)C(=O)N[C@@H](CCC(=O)O)C(=O)N[C@H](C(=O)N[C@@H](C)C(=O)N[C@@H](CCCCN)C(N)=O)[C@@H](C)CC)NC(=O)[C@H](CCCNC(=N)N)NC(=O)CNC1=O
other
  % peptide remaining after 4 h with chymotrypsin: > 92%

## CCCC[C@@H]1NC(=O)[C@H](CCCNC(=N)N)NC(=O)[C@H](C)NC(=O)[C@H](Cc2ccc(O)cc2)NC(=O)[C@](C)(NC(=O)[C@H](CCCCN)NC(=O)[C@H](C)NC(=O)CCCCCNC(=S)Nc2ccc3c(c2)C(=O)OC32c3ccc(O)cc3Oc3cc(O)ccc32)CCCCCC/C=C\CCC[C@@](C)(C(=O)N[C@@H](CC(C)C)C(=O)N[C@@H](CCCCN)C(=O)N[C@@H](CCC(=O)O)C(=O)N[C@H](C(=O)N[C@@H](C)C(=O)N[C@@H](CCCCN)C(N)=O)[C@@H](C)CC)NC(=O)[C@H](CCCNC(=N)N)NC(=O)CNC1=O ({FITC-Ahx}-AK[R8]YAR[Nle]GR[S5]LKEIAK-NH2; staple (Z) 3-10)
other
  % peptide remaining after 4 h with chymotrypsin: > 92%

## FTU-Ahx-AKS7YAR(Nle)GRR7LKEIAK-NH2 (sidechain bridge or staple) [compound 32, diyne-girder stapled T-STAR peptide, C14 bridge, SR]
[1]
  percentage helicity at 222 nm from mean residue ellipticity: 54%

## FTU-Ahx-AKS8YAR(Nle)GRS8LKEIAK-NH2 (sidechain bridge or staple) [compound 33, diyne-girder stapled T-STAR peptide, C16 bridge, SS]
[1]
  percentage helicity (in words): high

## FTU-Ahx-AKS8YAR(Nle)GRR8LKEIAK-NH2 (sidechain bridge or staple) [compound 36, diyne-girder stapled T-STAR peptide, C16 bridge, SR]
[1]
  percentage helicity (in words): high

## CCCC[C@@H]1NC(=O)[C@H](CCCNC(=N)N)NC(=O)[C@H](C)NC(=O)[C@H](Cc2ccc(O)cc2)NC(=O)[C@@](C)(NC(=O)[C@H](CCCCN)NC(=O)[C@H](C)NC(=O)CCCCCNC(=S)Nc2ccc3c(c2)C(=O)OC32c3ccc(O)cc3Oc3cc(O)ccc32)CCCCCC#CC#CCCCCC[C@@](C)(C(=O)N[C@@H](CC(C)C)C(=O)N[C@@H](CCCCN)C(=O)N[C@@H](CCC(=O)O)C(=O)N[C@H](C(=O)N[C@@H](C)C(=O)N[C@@H](CCCCN)C(N)=O)[C@@H](C)CC)NC(=O)[C@H](CCCNC(=N)N)NC(=O)CNC1=O
other
  % peptide remaining after 4 h with chymotrypsin: > 92%

## C#CCCCC[C@](C)(NC(=O)[C@H](CCCCNC(=O)OC(C)(C)C)NC(=O)[C@H](C)NC(=O)CCCCCNC(=O)OCC1c2ccccc2-c2ccccc21)C(=O)N[C@@H](Cc1ccc(OC(C)(C)C)cc1)C(=O)N[C@@H](C)C(=O)N[C@@H](CCCNC(=N)NS(=O)(=O)c1c(C)c(C)c2c(c1C)CC(C)(C)O2)C(=O)N[C@@H](CCCC)C(=O)NCC(=O)N[C@@H](CCCNC(=N)NS(=O)(=O)c1c(C)c(C)c2c(c1C)CC(C)(C)O2)C(=O)N[C@@](C)(CCCCC#C)C(=O)N[C@@H](CC(C)C)C(=O)N[C@@H](CCCCNC(=O)OC(C)(C)C)C(=O)N[C@@H](CCC(=O)OC(C)(C)C)C(=O)N[C@H](C(=O)N[C@@H](C)C(=O)N[C@@H](CCCCNC(=O)OC(C)(C)C)C(N)=O)[C@@H](C)CC
[2]; 34-membered ring
  ring closure, conversion by HPLC: 65%

## FTU-Ahx-AKR8YAR(Nle)GRR8LKEIAK-NH2 (sidechain bridge or staple) [compound 34, diyne-girder stapled T-STAR peptide, C16 bridge, RR]
[1]
  percentage helicity at 222 nm from mean residue ellipticity: 33%

## C#CCCCCCC[C@](C)(NC(=O)[C@H](CCCCNC(=O)OC(C)(C)C)NC(=O)[C@H](C)NC(=O)CCCCCNC(=O)OCC1c2ccccc2-c2ccccc21)C(=O)N[C@@H](Cc1ccc(OC(C)(C)C)cc1)C(=O)N[C@@H](C)C(=O)N[C@@H](CCCNC(=N)NS(=O)(=O)c1c(C)c(C)c2c(c1C)CC(C)(C)O2)C(=O)N[C@@H](CCCC)C(=O)NCC(=O)N[C@@H](CCCNC(=N)NS(=O)(=O)c1c(C)c(C)c2c(c1C)CC(C)(C)O2)C(=O)N[C@@](C)(CCCCCCC#C)C(=O)N[C@@H](CC(C)C)C(=O)N[C@@H](CCCCNC(=O)OC(C)(C)C)C(=O)N[C@@H](CCC(=O)OC(C)(C)C)C(=O)N[C@H](C(=O)N[C@@H](C)C(=O)N[C@@H](CCCCNC(=O)OC(C)(C)C)C(N)=O)[C@@H](C)CC
[2]; 38-membered ring
  ring closure, conversion by HPLC: 100%
